In patent publication US5738858A, “Skin care compositions containing fatty hydroxyethyl imidazoline surfactants and retinol or retinyl ester” (priority 1996, dated 1998):

What was measured:
[1] = system: keratinocyte proliferation; assay: 3H-Thymidine incorporation / keratinocyte proliferation (Example 1A); assay type: cell-based, human; details: […]10^-7 to […]10^-9 M; vs ethanol control and retinol treatments
[2] = system: keratinocyte differentiation (TGase 1); assay: Transglutaminase (TGase 1) ELISA, keratinocyte differentiation (Example 4); assay type: cell-based, human; details: used alone; Table 4
Protocol: (§1) Human keratinocytes, isolated from neonatal foreskin by trypsin treatment were grown in Dulbecco Modification Eagle (DME) Hams F12 (1:1) medium/10% fetal calf serum in the presence of irradiated 3T3 mouse fibroblasts for establishing dividing keratinocyte colonies. Cells were grown under the above condition until their second passage and kept frozen for future use. Frozen second passage keratinocytes were thawed and plated into the above medium and grown for five days before they were switched to a serum-free MCDB 153-based medium keratinocyte growth medium (KGM) from Clonetics Corporation, San Diego, Calif., containing 0.15 mM Ca, or keratinocyte serum-free media (KSFM) from GIBCO containing 0.09 mM Ca). On day 7, when the cells were 80-90% confluent, they were trypsinized and plated in the serum-free medium for the various experiments.
During the process of terminal differentiation in the epidermis, a 15 nm thick layer of protein, known as the cornified envelope (CE) is formed on the inner surface of the cell periphery. The CE is composed of numerous distinct proteins which have been cross-linked together by the formation of N ^ε -(γ-glutamyl) lysine isodipeptide bonds catalyzed by the action of at least two different transglutaminases (TGases) expressed in the epidermis. TGase 1 is expressed in abundance in the differentiated layers of the epidermis, especially the granular layer, but is absent in the undifferentiated basal epidermis. […]
(§2) Keratinocytes (cultured as described above) were plated in 96 well plates at a density of 3,000 cells per well in 2000 μl of cell culture media. […] The absorbance of samples was read at 492 nm in the plate reader. […] Transglutaminase I levels were determined by subtracted background from the readings from each treatment and determining the mean s.d. for the replicates exposed to both antibodies.
(§3) The level of TGase-1 detected after treatment of the cells could be influenced by cell number, i.e., the greater the number of cells the greater the level of TGase-1 detected. […]

[3] = system: keratinocyte differentiation (TGase 1); assay: Transglutaminase (TGase 1) ELISA normalized to DNA, keratinocyte differentiation (Example 1B); assay type: cell-based, human; details: […]10^-7 to […]10^-9 M; vs ethanol control
Protocol: as §1, with “experiments. […]” for “experiments.”
as §2, with “200” for “2000”, “μl” for “μl of cell culture”, “TGase” for “Transglutaminase I”, “subtracting” for “subtracted”, “mean±s.d.” for “the mean s.d.”, “Ab.” for “antibodies.”
as §3

ARAT = assay: In vitro microsomal esterification of retinol, ARAT catalyzed (retinyl palmitate formation); details: Table 2, 1 hour, 37° C.
Protocol: (§4) A solution containing 0.1M sodium phosphate pH 7 buffer, 5 mM dithiothreitol, 2 mg/ml bovine serum albumin, 40 micromolar palmitoyl CoA, 40 micromolar dilauroyl phosphatidyl choline, 10 micromolar retinol and a test compound or solvent blank, was incubated for 1 hour at 37° C. with a microsomal fraction isolated from bovine retinal pigment epithelial cells. After incubation, the reaction was quenched by addition of an equal volume of ethanol, and the retinyl esters formed (retinyl palmitate from the ARAT catalyzed reaction, and retinyl laurate from the LRAT catalyzed reaction) were extracted with hexane.

LRAT = target: T1, LRAT (Bos taurus, UniProt Q9BGL2); assay: In vitro microsomal esterification of retinol, LRAT catalyzed (retinyl laurate formation); assay type: biochemical, bovine; details: Table 2, 1 hour, 37° C.
T1 construct: microsomal fraction isolated from bovine retinal pigment epithelial cells; from tissue; host or cells: microsomes of bovine retinal pigment epithelial cells (method cited: Saari and Bredberg, J. Biol. Chem. 1988)
T1 sequence (Q9BGL2 1-230): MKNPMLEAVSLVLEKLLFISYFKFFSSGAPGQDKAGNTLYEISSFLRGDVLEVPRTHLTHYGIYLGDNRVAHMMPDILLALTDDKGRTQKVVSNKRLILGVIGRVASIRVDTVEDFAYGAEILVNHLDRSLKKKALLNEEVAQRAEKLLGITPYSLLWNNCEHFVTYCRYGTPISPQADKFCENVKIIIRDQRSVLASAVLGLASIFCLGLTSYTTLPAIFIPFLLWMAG
Protocol: as §4

Row | SMILES | keratinocyte differentiation (in words) [2] | % INHIB. ARAT (ARAT; 100 μM) | other results
1 | CC1=C(/C=C/C(C)=C/C=C/C(C)=C/C(=O)O)C(C)(C)CCC1 [RA, retinoic acid] | substantially decreased keratinocyte differentiation | – | keratinocyte proliferation (in words) [1]: significantly increased keratinocyte proliferation over both the ethanol control and each of the 2.5×10^-7 M, 2.5×10^-8 M and 2.5×10^-9 M retinol treatments and they did so in a dose dependant manner
2 | CC1=C(/C=C/C(C)=C/C=C/C(C)=C/CO)C(C)(C)CCC1 [ROH, retinol] | did not affect keratinocyte differentiation when used alone | – | keratinocyte differentiation / transglutaminase level (in words) [3]: The decrease in transglutaminase level was dose dependent
3 | CCCCCCCCCCCCCCCC(=O)OC/C=C(C)/C=C/C=C(C)/C=C/C1=C(C)CCCC1(C)C [RP, retinyl palmitate] | did not affect keratinocyte differentiation when used alone | – | –
4 | Nc1ncnc2nc[nH]c12 [adenine] | – | 0% | –
5 | O=C1C(N(CO)C(=O)NCO)N(CO)C(=O)N1CO (stereo not shown) [diazolidinyl urea] | – | – | % INHIB. LRAT (LRAT; 0 μM as printed): 0%; % INHIB. ARAT (ARAT; 0 μM as printed): 0%
6 | CCCCCCCCCCCC(=O)N(C)CC(=O)O [lauroyl sarcosine] | – | 20% | –
7 | CCCCCCCC/C=C\CCCCCCCC(=O)NCCC[N+](C)(C)CC(=O)[O-] [oleamidopropyl betaine] | – | – | % INHIB. LRAT (LRAT; 100 μM): 0%
8 | Cc1ncc(C[n+]2csc(CCO)c2C)c(N)n1 [thiamine] | – | 0% | –
9 | N[C@@H](Cc1c[nH]c2ccccc12)C(=O)O [tryptophan] | – | 0% | –
10 | O=c1cc[nH]c(=O)[nH]1 [uracil] | – | 0% | –
